From BindingDB's records for doi:10.1016/j.bmcl.2009.08.014 (Wuxi Pharmatech, 2009) come the findings set out here.

As usually defined, the IC50 is the concentration that gives 50% inhibition.

A short description of the test: Antagonist activity at CXCR2 expressed in CHO cells assessed as inhibition of IL-8-induced chemotaxis.

As for `CCN(Nc1c(Nc2cccc(C(=O)N(C)C)c2O)c(=O)c1=O)c1ccc(F)cc1` [3-(2-(2-ethyl-2-(4-fluorophenyl)hydrazinyl)-3,4-dioxocyclobut-1-enylamino)-2-hydroxy-N,N-dimethylbenzamide], the 50% inhibitory concentration (IC50) amounted to 840 nM.
To `CCN(Nc1c(Nc2cccc(C(=O)N(C)C)c2O)c(=O)c1=O)C(C)=O` [3-(2-(2-acetyl-2-ethylhydrazinyl)-3,4-dioxocyclobut-1-enylamino)-2-hydroxy-N,N-dimethylbenzamide] belongs 1250 nM; to `CCN(Nc1c(Nc2cccc(C(=O)N(C)C)c2O)c(=O)c1=O)c1ccc(OC)cc1` [3-(2-(2-ethyl-2-(4-methoxyphenyl)hydrazinyl)-3,4-dioxocyclobut-1-enylamino)-2-hydroxy-N,N-dimethylbenzamide], 100 nM.
Regarding `CCN(Nc1c(Nc2cccc(C(=O)N(C)C)c2O)c(=O)c1=O)c1ccccc1` [3-(2-(2-ethyl-2-phenylhydrazinyl)-3,4-dioxocyclobut-1-enylamino)-2-hydroxy-N,N-dimethylbenzamide], the 50% inhibitory concentration (IC50) was 54 nM.
As for `CCN(CC)Nc1c(Nc2cccc(C(=O)N(C)C)c2O)c(=O)c1=O` [3-(2-(2,2-diethylhydrazinyl)-3,4-dioxocyclobut-1-enylamino)-2-hydroxy-N,N-dimethylbenzamide], the figure is 46 nM; as for `CCN(Cc1ccc(F)cc1)Nc1c(Nc2cccc(C(=O)N(C)C)c2O)c(=O)c1=O` [3-(2-(2-ethyl-2-(4-fluorobenzyl)hydrazinyl)-3,4-dioxocyclobut-1-enylamino)-2-hydroxy-N,N-dimethylbenzamide], 6340 nM.
To `CCN(Nc1c(Nc2cccc(C(=O)N(C)C)c2O)c(=O)c1=O)C(=O)c1ccc(F)cc1` [3-(2-(2-ethyl-2-(4-fluorobenzoyl)hydrazinyl)-3,4-dioxocyclobut-1-enylamino)-2-hydroxy-N,N-dimethylbenzamide] belongs 840 nM; to `CCN(Nc1c(Nc2cccc(C(=O)N(C)C)c2O)c(=O)c1=O)c1ccccn1` [3-(2-(2-ethyl-2-(pyridin-2-yl)hydrazinyl)-3,4-dioxocyclobut-1-enylamino)-2-hydroxy-N,N-dimethylbenzamide], 75 nM.
